According to patent US7262173B2, “Chemosensitizing with liposomes containing oligonucleotides” (Georgetown University, priority 1997, dated 2007):

What was measured:
[1] = system: SQ-20B cells; details: free ODN 100 μM, 1% serum, previously demonstrated, cited from earlier work
[2] = Plasma pharmacokinetics of raf ODN after i.v. injection; type: in vivo, Balb/c nu/nu mice; details: 30 mg/kg i.v.
Protocol: FIG. 3: The plasma concentration-time profile of LE-ATG-AS raf ODN (SEQ ID NO:1), 30 mg/kg LE-ATG-AS raf ODN (SEQ ID NO:1) (top panel) or TG-AS raf ODN (SEQ ID NO:1) (middle panel) was administered […]. in […] nu/nu mice. Blood samples were collected from retro-orbital sinus as indicated times after injection and the ODNs in plasma samples were extracted and analyzed by denaturing gel electrophoresis as explained in the experimental procedures. St standards prepared by spiking known amounts of ATG-AS raf ODN (SEQ ID NO:1) in blank plasma. Top panel: Samples were diluted before electrophoresis as follows: lane 1, 12×; lanes 2 and 3, 4×; lanes 4 and 5, 3.3×; lane 6, 2×; lane 7, 1.4×; lane 8, 1.3×; and lane 9, I×. […] Additional standards (1.4 to >2 log range) were used to determine ODN concentration over a 24 hour period (data not shown). Middle panel: Samples were diluted before loading as follows: lane 1, 4×, lanes 2 and 3, 2×, lanes 4, 5 and 6, I×; lane 7, 0.75×, lanes 8 and […], 0.6×. […]
The extracts were loaded on to 20% polyacrylamide/3 M urea gels and electrophoresed in TBE buffer. […] The autoradiographs were scanned using a computer program (ImageQuant software, Molecular Dynamics, Sunnyvale, Calif., and USA), and the amounts of ATG-AS raf ODN (SEQ ID NO:1) in various samples were calculated by comparison to standards.

5′-GTG-CTCCATTGATGC-3′ (antisense GTGCTCCATTGATGC; DNA, linkages s1 o12 s1 (s phosphorothioate, o phosphodiester), methylation of C not given here) [ATG-AS raf ODN, antisense ODN to translation initiation site of human c-raf-1 cDNA; one terminal base linkage at each end phosphorothioate]
ODN taken up by SQ-20B cells ([1]; at 6 hours): < 2% | maximal uptake by SQ-20B cells ([1]; at 12 hours): approximately 4% | plasma concentration ([2]; at 5 min): 9.75 µg/mL | only time at which intact ODN detectable in plasma ([2]; free ODN): 5 min
